Test results: patent US8680159B2, “Bradykinin 1 receptor modulating compounds” (Gruenenthal GmbH, priority 2010, dated 2014)

Biological target: T1, human B1R receptor (CHO K1 cells stably transfected with the human B1R gene) (Homo sapiens, UniProt P46663)
T1 construct: expressed in transfected cells; host or cells: CHO K1 cells (Chinese hamster ovary), stably transfected
T1 sequence (P46663 1-353): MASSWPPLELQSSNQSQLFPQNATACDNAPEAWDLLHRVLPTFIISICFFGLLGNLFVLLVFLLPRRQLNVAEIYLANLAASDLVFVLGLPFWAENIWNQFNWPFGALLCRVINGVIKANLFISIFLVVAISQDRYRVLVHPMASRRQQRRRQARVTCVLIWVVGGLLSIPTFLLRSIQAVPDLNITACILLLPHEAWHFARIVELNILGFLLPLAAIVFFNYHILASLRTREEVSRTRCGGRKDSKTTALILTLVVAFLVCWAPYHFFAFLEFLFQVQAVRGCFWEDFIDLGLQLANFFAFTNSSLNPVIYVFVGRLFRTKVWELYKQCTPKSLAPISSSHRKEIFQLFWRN
Test: Functional study on the bradykinin receptor 1 (B1R), Ca2+ fluorescence (Fluo-4) FLIPR/Novostar assay, hB1R cells
Assay type: cell-based
Details: CHO-K1, read-out: % Inhibition (h-B1R) at 10 μM
Protocol: The agonistic or antagonistic action of substances can be quantified on the bradykinin receptor 1 (B1R) of the species human and rat using ectopically expressing cell lines (CHO K1 cells) and with the aid of a Ca^2+-sensitive dye (Fluo-4) using a fluorescent imaging plate reader (FLIPR). The indication in % activation is based on the Ca^2+ signal after addition of Lys-Des-Arg^9-bradykinin (0.5 nM) or Des-Arg^9-bradykinin (100 nM). Antagonists lead to suppression of the Ca^2+ influx after the addition of the agonist. % Inhibition compared with the maximum achievable inhibition is indicated.
The agonistic or antagonistic action of substances can be determined on the bradykinin receptor 1 (B1R) of the species human and rat using the following assay. According to this assay, the increase in intracellular Ca^2+ following administration of a B1R agonist is quantified with the aid of a Ca^2+-sensitive dye (Fluo-4 type, Molecular Probes Europe BV, Leiden, Netherlands) using a Fluorescent Imaging Plate Reader (FLIPR, Molecular Devices, Sunnyvale, USA) and/or using a Novostar (BMG Labtech GmbH, Offenburg, Germany).
Chinese hamster ovary cells (CHO K1 cells) which have been stably transfected with the human B1R gene (hB1R cells) or with the B1R gene of the rat (rB1R cells) are used. For functional studies, the cells are plated out on black 96-well plates having a clear base (BD Biosciences, Heidelberg, Germany or Greiner, Frickenhausen, Germany) in a density of 20,000-35,000 cells/well. The cells are left overnight at 37° C. and with 5% CO2 in culture medium (hB1R cells: Nutrient Mixture Ham's F12, Gibco Invitrogen GmbH, Karlsruhe, Germany or DMEM, Sigma-Aldrich, Taufkirchen, Germany; rB1R cells: D-MEM/F12, Gibco Invitrogen GmbH, Karlsruhe, Germany), with 10 vol. % FBS (fetal bovine serum, Gibco Invitrogen GmbH, Karlsruhe, Germany or PAN Biotech GmbH, Aidenbach, Germany). On the following day, the cells are loaded for 60 minutes at 37° C. with 2.13 μM Fluo-4 (Molecular Probes Europe BV, Leiden, Netherlands) in HBSS buffer (Hank's buffered saline solution, Gibco Invitrogen GmbH, Karlsruhe, Germany) […] (Sigma-Aldrich, Taufkirchen, Germany) and 10 mM HEPES (Sigma-Aldrich, Taufkirchen, Germany). The plates are then washed twice with HBSS buffer, and HBSS buffer additionally containing 0.1% BSA (bovine serum albumin; Sigma-Aldrich, Taufkirchen, Germany), 5.6 mM glucose and 0.05% gelatin (Merck KGaA, Darmstadt, Germany) is added to the plates. After incubation for a further 20 minutes at room temperature, the plates are inserted into the FLIPR or Novostar for Ca^2+ measurement. Alternatively, washing is carried out with buffer A (15 mM HEPES, 80 mM NaCl, 5 mM KCl, 1.2 mM CaCl2, 0.7 mM MgSO4, 2 g/l glucose, 2.5 mM probenecid) followed by loading with buffer A with added 2.5 μM Fluo-4 and 0.025% Pluronic F127 (Sigma-Aldrich, Taufkirchen, Germany). The cells are then washed twice with buffer A and incubated for 30 minutes at room temperature with buffer A additionally containing 0.05% BSA and 0.05% gelatin and are then inserted into the FLIPR or Novostar for Ca^2+ measurement. The Ca^2+-dependent fluorescence is measured before and after the addition of substances (λex=488 nm, λem=540 nm). Quantification is carried out by measuring the highest fluorescence intensity (FC, fluorescence counts) over time.
The FLIPR protocol consists of 2 substance additions, which are pipetted in the FLIPR. In the case of measurements using the Novostar, only the second substance addition is pipetted in the device. Both devices measure the fluorescence intensity over time. Test substances (10 μM) are first pipetted onto the cells and the intracellular Ca^2+ increase is compared with the control (hB1R: Lys-Des-Arg^9-bradykinin>=50 nM; rB1R: Des-Arg^9-bradykinin>=1 μM). This gives the % activation, based on the Ca^2+ signal after addition of Lys-Des-Arg^9-bradykinin (>=50 nM) or Des-Arg^9-bradykinin (>=1 μM). […]

| SMILES | inhibition at 10 µM [%] |
| --- | --- |
| Cc1cc(N2CCC(N(C)C(=O)c3ccc4c(c3)C(N(C)C(=O)CC(C)C)CC4)CC2)cc(C)n1 (stereo not drawn) [CC_H-90, N-[1-(2,6-Dimethyl-pyridin-4-yl)-piperidin-4-yl]-N-methyl-3-[methyl-(3-methyl-butanoyl)-amino]-2,3-dihydro-1H-indene-5-carboxylic acid amide] | 100 |
| Cc1cc(N2CCC(N(C)C(=O)c3ccc4c(c3)C(N(C)C(=O)c3c(C)cccc3C)CC4)CC2)cc(C)n1 (stereo not drawn) [CC_H-91, 3-[(2,6-Dimethyl-benzoyl)-methyl-amino]-N-[1-(2,6-dimethyl-pyridin-4-yl)-piperidin-4-yl]-N-methyl-2,3-dihydro-1H-indene-5-carboxylic acid amide] | 99 |
| Cc1cc(N2CCC(N(C)C(=O)c3ccc4c(c3)C(N(C)C(=O)c3cncnc3)CC4)CC2)cc(C)n1 (stereo not drawn) [CC_H-92, N-[6-[[1-(2,6-Dimethyl-pyridin-4-yl)-piperidin-4-yl]-methyl-carbamoyl]-2,3-dihydro-1H-inden-1-yl]-N-methyl-pyrimidine-5-carboxylic acid amide] | 98 |
| CN(C(=O)c1ccc2c(c1)C(NS(=O)(=O)c1c(Cl)cccc1C(F)(F)F)CC2(C)C)C1CCN(c2ccncc2)CC1 (stereo not drawn) [CC_H-93, 3-[[[2-Chloro-6-(trifluoromethyl)-phenyl]sulfonyl]amino]-N,1,1-trimethyl-N-(1-pyridin-4-yl-piperidin-4-yl)-2,3-dihydro-indene-5-carboxylic acid amide] | 100 |
| Cc1cc(N2CCC(N(C)C(=O)c3ccc4c(c3)C(NC(=O)c3cccc(Cl)c3Cl)CC4)CC2)cc(C)n1 (stereo not drawn) [CC_H-96, 3-[(2,3-Dichloro-benzoyl)amino]-N-[1-(2,6-dimethyl-pyridin-4-yl)-piperidin-4-yl]-N-methyl-2,3-dihydro-1H-indene-5-carboxylic acid amide] | 100 |
| O=C(CCC1CCCC1)NC1CCc2ccc(C(=O)NCCC3CCN(c4ccncc4)CC3)cc21 (stereo not drawn) [CC_H-101, 3-(3-Cyclopentyl-propanoylamino)-N-[2-(1-pyridin-4-yl-piperidin-4-yl)-ethyl]-2,3-dihydro-1H-indene-5-carboxylic acid amide] | 100 |
| Cc1cccc(C)c1C(=O)NC1CCc2ccc(C(=O)NCCC3CCN(c4ccncc4)CC3)cc21 (stereo not drawn) [CC_H-105, 3-[(2,6-Dimethyl-benzoyl)amino]-N-[2-(1-pyridin-4-yl-piperidin-4-yl)-ethyl]-2,3-dihydro-1H-indene-5-carboxylic acid amide] | 90 |
| Cc1cc(N2CCC(N(C)C(=O)c3ccc4c(c3)C(NC(=O)c3c(Cl)cccc3C(F)(F)F)CC4)CC2)cc(C)n1 (stereo not drawn) [CC_H-107, 3-[[2-Chloro-6-(trifluoromethyl)-benzoyl]amino]-N-[1-(2,6-dimethyl-pyridin-4-yl)-piperidin-4-yl]-N-methyl-2,3-dihydro-1H-indene-5-carboxylic acid amide] | 97 |

More lines, now with the values ahead:

| inhibition at 10 µM [%] | SMILES |
| --- | --- |
| 100 | CN(C(=O)NC1CCCc2ccc(C(=O)N(C)C3CCN(c4ccncc4)CC3)cc21)c1ccccc1Cl (stereo not drawn) [CC_H-94, 8-[[(2-Chlorophenyl)-methyl-carbamoyl]amino]-N-methyl-N-(1-pyridin-4-yl-piperidin-4-yl)-5,6,7,8-tetrahydro-naphthalene-2-carboxylic acid amide] |
| 100 | CN(C(=O)c1ccc2c(c1)C(NC(=O)C(C)(C)c1ccccc1Cl)CC2(C)C)C1CCN(c2ccncc2)CC1 (stereo not drawn) [CC_H-95, 3-[[2-(2-Chlorophenyl)-2-methyl-propanoyl]amino]-N,1,1-trimethyl-N-(1-pyridin-4-yl-piperidin-4-yl)-2,3-dihydro-indene-5-carboxylic acid amide] |
| 92 | CN(C(=O)c1ccc2c(c1)C(NC(=O)C(C)(C)c1ccccc1Cl)CCO2)C1CCN(c2ccncc2)CC1 (stereo not drawn) [CC_H-97, 4-[[2-(2-Chlorophenyl)-2-methyl-propanoyl]amino]-N-methyl-N-(1-pyridin-4-yl-piperidin-4-yl)-3,4-dihydro-2H-chromene-6-carboxylic acid amide] |
| 92 | CN(C(=O)c1ccc2c(c1)C(NC(=O)C(C)(C)c1ccccc1Cl)CC2)C1CCN(c2ccc3cnccc3c2)CC1 (stereo not drawn) [CC_H-98, 3-[[2-(2-Chlorophenyl)-2-methyl-propanoyl]amino]-N-(1-isoquinolin-6-yl-piperidin-4-yl)-N-methyl-2,3-dihydro-1H-indene-5-carboxylic acid amide] |
| 100 | Cc1cc(N2CCC(N(C)C(=O)c3ccc4c(c3)C(NC(=O)c3ccccc3Cl)CC4)CC2)cc(C)n1 (stereo not drawn) [CC_H-99, 3-[(2-Chloro-benzoyl)amino]-N-[1-(2,6-dimethyl-pyridin-4-yl)-piperidin-4-yl]-N-methyl-2,3-dihydro-1H-indene-5-carboxylic acid amide] |
| 77 | CN(C(=O)c1ccc2c(c1)CCC2NC(=O)C(C)(C)c1ccccc1Cl)C1CCN(c2ccncc2)CC1 (stereo not drawn) [CC_H-100, 1-[[2-(2-Chlorophenyl)-2-methyl-propanoyl]amino]-N-methyl-N-(1-pyridin-4-yl-piperidin-4-yl)-2,3-dihydro-1H-indene-5-carboxylic acid amide] |
| 99 | CN(C(=O)c1ccc2c(c1)C(NC(=O)C(C)(C)c1ccccc1Cl)CCC2)C1CCN(c2ccncc2)CC1 (stereo not drawn) [CC_H-102, 8-[[2-(2-Chlorophenyl)-2-methyl-propanoyl]amino]-N-methyl-N-(1-pyridin-4-yl-piperidin-4-yl)-5,6,7,8-tetrahydro-naphthalene-2-carboxylic acid amide] |
| 89 | CC(C)(C(=O)NC1CCc2ccc(C(=O)NCCC3CCN(c4ccncc4)CC3)cc21)c1ccccc1Cl (stereo not drawn) [CC_H-103, 3-[[2-(2-Chlorophenyl)-2-methyl-propanoyl]amino]-N-[2-(1-pyridin-4-yl-piperidin-4-yl)-ethyl]-2,3-dihydro-1H-indene-5-carboxylic acid amide] |
| 100 | CN(C(=O)NC1CCc2ccc(C(=O)N(C)C3CCN(c4ccc5cnccc5c4)CC3)cc21)c1ccccc1Cl (stereo not drawn) [CC_H-104, 3-[[(2-Chlorophenyl)-methyl-carbamoyl]amino]-N-(1-isoquinolin-6-yl-piperidin-4-yl)-N-methyl-2,3-dihydro-1H-indene-5-carboxylic acid amide] |
| 100 | CN(C(=O)c1ccc2c(c1)C(N(C)C(=O)c1ccccc1Cl)CC2)C1CCN(c2ccncc2)CC1 (stereo not drawn) [CC_H-106, 3-[(2-Chloro-benzoyl)-methyl-amino]-N-methyl-N-(1-pyridin-4-yl-piperidin-4-yl)-2,3-dihydro-1H-indene-5-carboxylic acid amide] |
